From US12303509B2, “Compounds for the treatment of BRAF-associated diseases and disorders” (Pfizer Inc., priority 2020, dated 2025)
pIC50: −log10 of the molar value. Where a name gives a salt, the structure may show the parent alone. Read-outs that look alike come from different tables or passages of the source.

Experiments:
[1] = target: P-gp (MDR1) (Homo sapiens (Human), UniProt P08183); assay: MDR1 LLC-PK1 permeability assay: efflux ratio; type: in vitro ADME; conditions: pig
Description: (§1) Final organic concentration in the assay was 1%.

[2] = target: full-length FLAG-tagged B-Raf(V600E) (Homo sapiens (Human), UniProt P15056, V600E); assay: BRAF V600E enzyme assay (TR-FRET competitive displacement); type: binding
Procedure, shortened: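 Displacement of 50 nM Tracer 1710 from 5 nM full-length N-terminally FLAG-tagged B-Raf(V600E), detected by TR-FRET with 0.5 nM Eu anti-FLAG antibody, in 25 mM HEPES pH 7.4, 10 mM MgCl2, 2% DMSO; 60 min at ~22 °C. Compounds 11-point, 3-fold from 10 μM; IC50 from 4-parameter fit at 50 POC.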

[3] = test system: H1755 cells; assay: Cellular phospho-ERK inhibition assay in H1755 cells; type: cell-based; conditions: Homo sapiens, NCI-H1755, 2 hours treatment, read-out: H1755 Cell IC50
Procedure, shortened: (§2)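 A375 (DMEM) or H1755 (RPMI) cells in 10% FBS treated 2 h at 37 °C with 9-point series, 66 pM–10 μM, 0.25% DMSO. Phospho-ERK1/2 (Thr202/Tyr204) measured by In Cell Western, normalised to GAPDH and to DMSO and 10 μM binimetinib controls; IC50 by 4-parameter fit.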

[4] = MDR1 LLC-PK1 and BCRP MDCKII permeability assay: permeability coefficient (Papp); type: in vitro ADME
Description: as §1

[5] = test system: A375 cells; assay: Cellular phospho-ERK inhibition assay in A375 cells; type: cell-based; conditions: Homo sapiens, A-375, A375 cells (head prints A357), 2 hours treatment, read-out: A357 cell IC50
Procedure, shortened: as §2

[6] = target: BCRP (Homo sapiens (Human), UniProt Q9UNQ0); assay: BCRP MDCKII permeability assay: efflux ratio; type: in vitro ADME; conditions: dog
[7] = averaged IC50, TR-FRET tracer displacement, 60 min

Sequence of full-length FLAG-tagged B-Raf(V600E) (P15056 whole entry V600E): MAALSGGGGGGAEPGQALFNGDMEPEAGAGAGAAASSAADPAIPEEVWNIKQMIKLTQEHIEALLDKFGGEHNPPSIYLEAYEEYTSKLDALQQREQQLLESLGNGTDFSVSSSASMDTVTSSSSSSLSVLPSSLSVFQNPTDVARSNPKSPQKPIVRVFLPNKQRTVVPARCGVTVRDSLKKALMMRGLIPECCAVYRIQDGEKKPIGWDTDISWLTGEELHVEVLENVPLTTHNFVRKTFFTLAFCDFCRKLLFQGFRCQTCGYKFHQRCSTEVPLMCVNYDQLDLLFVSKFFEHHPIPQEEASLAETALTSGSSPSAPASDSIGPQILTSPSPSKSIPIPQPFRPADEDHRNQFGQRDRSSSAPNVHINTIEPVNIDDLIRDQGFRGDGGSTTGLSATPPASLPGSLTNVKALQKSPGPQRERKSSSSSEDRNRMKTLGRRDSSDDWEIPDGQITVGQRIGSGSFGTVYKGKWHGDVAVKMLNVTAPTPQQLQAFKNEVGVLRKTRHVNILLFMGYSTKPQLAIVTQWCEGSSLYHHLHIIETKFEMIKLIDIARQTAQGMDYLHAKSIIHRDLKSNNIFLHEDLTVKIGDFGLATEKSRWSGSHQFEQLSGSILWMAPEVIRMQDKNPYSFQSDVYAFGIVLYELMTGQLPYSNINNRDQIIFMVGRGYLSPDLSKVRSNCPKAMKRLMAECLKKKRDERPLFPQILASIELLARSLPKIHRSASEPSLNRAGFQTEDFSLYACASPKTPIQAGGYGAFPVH
Sequence of BCRP (Q9UNQ0 whole entry): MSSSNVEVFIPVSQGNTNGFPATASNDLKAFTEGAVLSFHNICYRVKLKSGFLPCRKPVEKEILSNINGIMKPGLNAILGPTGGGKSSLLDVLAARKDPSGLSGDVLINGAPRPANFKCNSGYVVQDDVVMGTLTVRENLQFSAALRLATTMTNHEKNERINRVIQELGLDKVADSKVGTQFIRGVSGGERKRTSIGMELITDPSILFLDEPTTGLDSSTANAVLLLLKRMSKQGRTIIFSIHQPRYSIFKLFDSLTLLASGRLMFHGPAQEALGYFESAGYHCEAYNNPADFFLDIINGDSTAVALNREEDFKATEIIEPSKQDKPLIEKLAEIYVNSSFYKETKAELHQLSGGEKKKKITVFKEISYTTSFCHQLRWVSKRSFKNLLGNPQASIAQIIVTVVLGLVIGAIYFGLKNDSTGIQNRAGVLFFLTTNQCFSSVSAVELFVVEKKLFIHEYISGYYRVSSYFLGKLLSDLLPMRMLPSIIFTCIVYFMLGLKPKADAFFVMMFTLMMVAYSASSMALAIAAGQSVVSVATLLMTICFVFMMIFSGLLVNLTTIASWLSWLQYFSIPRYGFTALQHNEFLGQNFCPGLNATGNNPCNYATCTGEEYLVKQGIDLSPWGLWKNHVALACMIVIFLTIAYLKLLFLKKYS
Sequence of P-gp (MDR1) (P08183 whole entry, species assumed): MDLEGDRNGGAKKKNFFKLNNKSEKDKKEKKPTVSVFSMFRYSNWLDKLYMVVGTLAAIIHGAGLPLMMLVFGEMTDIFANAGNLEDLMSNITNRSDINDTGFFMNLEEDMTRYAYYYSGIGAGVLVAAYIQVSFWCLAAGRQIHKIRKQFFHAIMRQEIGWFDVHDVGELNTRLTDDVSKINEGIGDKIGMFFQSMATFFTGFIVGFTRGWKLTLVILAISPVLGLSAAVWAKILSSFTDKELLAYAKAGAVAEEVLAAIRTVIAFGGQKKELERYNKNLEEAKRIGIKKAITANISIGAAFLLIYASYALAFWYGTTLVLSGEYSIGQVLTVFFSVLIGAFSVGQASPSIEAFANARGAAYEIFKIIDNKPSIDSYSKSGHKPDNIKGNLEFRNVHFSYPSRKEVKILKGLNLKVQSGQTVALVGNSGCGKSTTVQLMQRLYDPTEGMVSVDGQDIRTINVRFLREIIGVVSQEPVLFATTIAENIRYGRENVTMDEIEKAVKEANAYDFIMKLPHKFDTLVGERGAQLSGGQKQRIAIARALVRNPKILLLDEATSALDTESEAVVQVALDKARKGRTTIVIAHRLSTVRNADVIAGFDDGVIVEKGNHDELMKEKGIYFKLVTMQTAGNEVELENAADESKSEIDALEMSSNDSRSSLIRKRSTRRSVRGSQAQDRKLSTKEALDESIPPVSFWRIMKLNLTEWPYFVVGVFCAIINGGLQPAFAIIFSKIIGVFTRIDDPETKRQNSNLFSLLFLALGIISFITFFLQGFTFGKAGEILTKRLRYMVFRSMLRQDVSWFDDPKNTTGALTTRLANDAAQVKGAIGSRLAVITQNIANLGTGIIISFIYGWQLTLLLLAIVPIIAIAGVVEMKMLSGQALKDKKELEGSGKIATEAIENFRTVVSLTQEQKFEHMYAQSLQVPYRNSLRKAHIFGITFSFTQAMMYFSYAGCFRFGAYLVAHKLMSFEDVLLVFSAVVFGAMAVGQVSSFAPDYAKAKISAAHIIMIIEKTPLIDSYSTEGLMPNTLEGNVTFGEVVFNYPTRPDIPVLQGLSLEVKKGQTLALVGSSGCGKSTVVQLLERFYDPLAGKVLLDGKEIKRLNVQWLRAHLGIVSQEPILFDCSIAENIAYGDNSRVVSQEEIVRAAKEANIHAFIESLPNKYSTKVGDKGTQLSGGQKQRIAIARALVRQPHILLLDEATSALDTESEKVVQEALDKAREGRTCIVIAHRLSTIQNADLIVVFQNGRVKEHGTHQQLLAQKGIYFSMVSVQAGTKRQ

Row | SMILES | efflux ratio at 2 h, 1 µM [1] | pIC50 [2, 7] | pIC50 [3] | Papp at 2 h, 1 µM [4] [×10⁻⁶ cm/s] | pIC50 [5] | efflux ratio at 2 h, 1 µM [6] | pIC50 [2]
1 | Cn1cnc2ccc(Nc3c(F)ccc(NS(=O)(=O)N4CC[C@@H](OC(F)F)C4)c3Cl)c(F)c2c1=O [Example 26, (R)-N-(2-chloro-4-fluoro-3-((5-fluoro-3-methyl-4-oxo-3,4-dihydroquinazolin-6-yl)amino)phenyl)-3-(difluoromethoxy)pyrrolidine-1-sulfonamide] | 3.3 | 8.22 | 7.82 | 31 | 8.40 | 3.7 | –
2 | Cc1c(Nc2cc(F)cc(NS(=O)(=O)N3CCCC3)c2F)ccc2ncn(C)c(=O)c12 [Example 154, N-(3-((3,5-dimethyl-4-oxo-3,4-dihydroquinazolin-6-yl)amino)-2,5-difluorophenyl)pyrrolidine-1-sulfonamide] | 1.4 | 7.55 | 6.06 | 26 | 6.39 | 1.3 | –
3 | Cc1c(Nc2cc(F)cc(NS(=O)(=O)N3CC[C@@H](F)C3)c2Cl)ccc2ncn(C)c(=O)c12 [Example 151, (R)-N-(2-chloro-3-((3,5-dimethyl-4-oxo-3,4-dihydroquinazolin-6-yl)amino)-5-fluorophenyl)-3-fluoropyrrolidine-1-sulfonamide] | 1.5 | 7.85 | 6.27 | 28 | 6.55 | 1.8 | –
4 | CO[C@@H]1CCN(S(=O)(=O)Nc2ccc(F)c(Nc3ccc4ncn(C)c(=O)c4c3Br)c2Cl)C1 [Example 8, (R)-N-(3-((5-bromo-3-methyl-4-oxo-3,4-dihydroquinazolin-6-yl)amino)-2-chloro-4-fluorophenyl)-3-methoxypyrrolidine-1-sulfonamide trifluoroacetate] | 2.5 | 8.00 | 7.59 | 23 | 7.92 | 1.3 | –
5 | [2H]C([2H])([2H])O[C@@H]1CCN(S(=O)(=O)Nc2ccc(F)c(Nc3ccc4ncn(C)c(=O)c4c3Cl)c2Cl)C1 [Example 53, (R)-N-(2-chloro-3-((5-chloro-3-methyl-4-oxo-3,4-dihydroquinazolin-6-yl)amino)-4-fluorophenyl)-3-(methoxy-d3)pyrrolidine-1-sulfonamide trifluoroacetate] | 2 | 8.15 | 7.60 | 30 | 8.22 | 1.8 | –
6 | COC1CN(S(=O)(=O)Nc2ccc(F)c(Nc3ccc4ncn(C)c(=O)c4c3C)c2Cl)C1 [Example 128, N-(2-chloro-3-((3,5-dimethyl-4-oxo-3,4-dihydroquinazolin-6-yl)amino)-4-fluorophenyl)-3-methoxyazetidine-1-sulfonamide trifluoroacetate] | 1.5 | 7.80 | 6.89 | 49 | 7.60 | 1.3 | –
7 | CCN(C)S(=O)(=O)Nc1cc(F)c(F)c(Nc2ccc3ncn(C)c(=O)c3c2C)c1Cl [Example 97, N-(2-chloro-3-((3,5-dimethyl-4-oxo-3,4-dihydroquinazolin-6-yl)amino)-4,5-difluorophenyl)-(N-ethyl-N-methyl)-sulfamide] | 0.9 | 8.00 | 6.21 | 30 | 7.06 | 1.8 | –
8 | Cn1cnc2ccc(Oc3c(F)ccc(NS(=O)(=O)N4CC5CC4C5)c3Cl)c(Cl)c2c1=O [Example 67, N-(2-chloro-3-((5-chloro-3-methyl-4-oxo-3,4-dihydroquinazolin-6-yl)oxy)-4-fluorophenyl)-2-azabicyclo[2.1.1]hexane-2-sulfonamide] | 1.4 | – | 7.12 | 24 | 8.10 | 1 | 8.70
9 | Cn1cnc2ccc(Nc3c(F)ccc(NS(=O)(=O)N4CC(F)(F)C4)c3Cl)c(F)c2c1=O [Example 136, N-(2-chloro-4-fluoro-3-((5-fluoro-3-methyl-4-oxo-3,4-dihydroquinazolin-6-yl)amino)phenyl)-3,3-difluoroazetidine-1-sulfonamide] | 3 | 8.22 | 7.05 | 24 | 8.15 | 18.3 | –
10 | CO[C@@H]1CN(S(=O)(=O)Nc2ccc(F)c(Nc3ccc4ncn(C)c(=O)c4c3F)c2Cl)C[C@@H]1F (relative stereo) [Example 15, cis-N-(2-chloro-4-fluoro-3-((5-fluoro-3-methyl-4-oxo-3,4-dihydroquinazolin-6-yl)amino)phenyl)-3-fluoro-4-methoxypyrrolidine-1-sulfonamide] | 6.8 | 8.22 | 7.80 | 26 | 8.70 | 13.4 | –
11 | Cn1cnc2ccc(Nc3c(F)ccc(NS(=O)(=O)N4CC[C@H](F)C4)c3Cl)c(F)c2c1=O [Example 27, (S)-N-(2-chloro-4-fluoro-3-((5-fluoro-3-methyl-4-oxo-3,4-dihydroquinazolin-6-yl)amino)phenyl)-3-fluoropyrrolidine-1-sulfonamide trifluoroacetate] | 2.7 | 8.30 | 7.57 | 39 | 8.30 | 4.4 | –
12 | CCN(C)S(=O)(=O)Nc1ccc(F)c(Oc2ccc3ncn(C)c(=O)c3c2Cl)c1Cl [Example 109, N-(2-chloro-3-((5-chloro-3-methyl-4-oxo-3,4-dihydroquinazolin-6-yl)oxy)-4-fluorophenyl)-(N-ethyl-N-methyl)-sulfamide] | 1.1 | 8.15 | 6.57 | 34 | 7.89 | 0.8 | –
13 | Cc1c(Nc2c(F)ccc(NS(=O)(=O)N3CC4CC3C4)c2Cl)ccc2ncn(C)c(=O)c12 [Example 87, N-(2-chloro-3-((3,5-dimethyl-4-oxo-3,4-dihydroquinazolin-6-yl)amino)-4-fluorophenyl)-2-azabicyclo[2.1.1]hexane-2-sulfonamide trifluoroacetate] | 1 | 7.48 | 6.67 | 21 | 7.14 | 0.6 | –
14 | CO[C@@H]1CN(S(=O)(=O)Nc2ccc(F)c(Nc3ccc4ncn(C)c(=O)c4c3Cl)c2Cl)C[C@@H]1F (relative stereo) [Example 18, cis-N-(2-chloro-3-((5-chloro-3-methyl-4-oxo-3,4-dihydroquinazolin-6-yl)amino)-4-fluorophenyl)-3-fluoro-4-methoxypyrrolidine-1-sulfonamide] | 3 | 8.40 | 7.74 | 40 | 8.70 | 4.9 | –
15 | CCC1CCN(S(=O)(=O)Nc2ccc(F)c(Nc3ccc4ncn(C)c(=O)c4c3Cl)c2Cl)C1 (stereo not drawn) [Example 94, N-(2-chloro-3-((5-chloro-3-methyl-4-oxo-3,4-dihydroquinazolin-6-yl)amino)-4-fluorophenyl)-3-ethylpyrrolidine-1-sulfonamide trifluoroacetate] | 0.9 | 7.70 | 6.55 | 22 | 6.86 | 1.7 | –
16 | CO[C@@H]1CCN(S(=O)(=O)Nc2ccc(F)c(Nc3ccc4ncn(C)c(=O)c4c3C)c2Cl)C1 [Example 1, (R)-N-(2-chloro-3-((3,5-dimethyl-4-oxo-3,4-dihydroquinazolin-6-yl)amino)-4-fluorophenyl)-3-methoxypyrrolidine-1-sulfonamide] | 1.7 | 7.22 | 6.99 | 31 | 7.49 | 1.4 | –
17 | CN(C)S(=O)(=O)Nc1ccc(F)c(Nc2ccc3ncn(C)c(=O)c3c2F)c1Cl [Example 83, N-(2-chloro-4-fluoro-3-((5-fluoro-3-methyl-4-oxo-3,4-dihydroquinazolin-6-yl)amino)phenyl)-(N.N-dimethyl)-sulfamide] | 2.2 | 7.17 | 6.81 | 32 | 7.51 | 1.9 | –
18 | Cn1cnc2ccc(Nc3c(F)c(F)cc(NS(=O)(=O)N4CCCC4)c3Cl)c(Cl)c2c1=O [Example 31, N-(2-chloro-3-((5-chloro-3-methyl-4-oxo-3,4-dihydroquinazolin-6-yl)amino)-4,5-difluorophenyl)pyrrolidine-1-sulfonamide trifluoroacetate] | 1.2 | 9.00 | 6.77 | 31 | 8.05 | 1 | –
